Test results: publication PMC3191323 (Journal of medicinal chemistry, 2011)
Blank lines part the entries; values can stand above or below the compound they belong to.

Columns and labels:
[1] = test system: P. falciparum; assay: Flow cytometric analysis of parasite DNA replication and nuclear division; type: cell-based, Plasmodium falciparum; conditions: 2xIC50, flow cytometry
[2] = test system: P. falciparum (3D7); assay: Viable cell count; type: cell-based, Plasmodium falciparum; conditions: 2xIC50, 72 h
[3] = test system: HepG2 human hepatocellular liver carcinoma cells; assay: Cytotoxicity in mammalian cells, lactate dehydrogenase assay; type: cell-based; conditions: HepG2 vs P. falciparum
[4] = test system: P. falciparum strain 3D7; assay: Malaria SYBR Green I-based fluorescence assay; type: cell-based, Plasmodium falciparum
[5] = test system: P. falciparum strain W2; assay: Malaria SYBR Green I-based fluorescence assay; type: cell-based; conditions: Plasmodium falciparum, W2, 96 h, read-out: Antimalarial activity against P. falciparum IC50, W2

SMILES: Cl.Cl.S=C(NCCCNCCCCCCCNCCCNC(=S)NCC(c1ccccc1)c1ccccc1)NCC(c1ccccc1)c1ccccc1 [Compound 16]
- Effect on DNA replication and nuclear division [1]: greatest inhibitory affect on DNA replication and nuclear division
- Cytotoxic response: decrease in viable cell numbers (% parasitemia) [2]: significant cytotoxic response

SMILES: Cl.Cl.S=C(NCCCNCCCCCCNCCCNC(=S)NCc1ccccc1)NCc1ccccc1 [Compound 29, 1,14-Bis-{3-[1-(benzyl)thioureado]}-4,11-diazatetradecane Hydrochloride]
- Selectivity towards the parasite compared to HepG2 [3]: > 500 fold
- Cytotoxic response: decrease in viable cell numbers (% parasitemia) [2]: significant cytotoxic response

SMILES: Cl.Cl.O=C(NCCCNCCCCCCCNCCCNC(=O)NCCC(c1ccccc1)c1ccccc1)NCCC(c1ccccc1)c1ccccc1 [Compound 9]
- Cytotoxic response: decrease in viable cell numbers (% parasitemia) [2]: significant cytotoxic response

- Antimalarial activity against P. falciparum IC50, 3D7 (values in μM) ([4]; drug sensitive strain 3D7, footnote: IC50 values in μM): not active in the μM range
SMILES: CCNC(=O)NCCCNCCCCCCNCCCNC(=O)NCC.Cl.Cl [Compound 34, 1,14-Bis-{3-[1-(ethyl)ureado]}-4,11-diazatetradecane Hydrochloride]

SMILES: Cl.Cl.O=C(NCCCNCCCCCCNCCCNC(=O)Nc1ccccc1)Nc1ccccc1 [Compound 30, 1,14-Bis-{3-[1-(phenyl)ureado]}-4,11-diazatetradecane Hydrochloride]
- Cytotoxic response: decrease in viable cell numbers (% parasitemia) [2]: significant cytotoxic response

SMILES: Cl.Cl.S=C(NCCCNCCCCNCCCNC(=S)NCC(c1ccccc1)c1ccccc1)NCC(c1ccccc1)c1ccccc1 [Compound 15]
- Cytotoxic response: decrease in viable cell numbers (% parasitemia) [2]: significant cytotoxic response

SMILES: Cl.Cl.O=C(NCCCNCCCCCCCNCCCNC(=O)NC(c1ccccc1)c1ccccc1)NC(c1ccccc1)c1ccccc1 [Compound 38, 1,15-Bis-{3-[1-(1′,1′-diphenylmethyl)ureado]}-4,12-diazapentadecane Hydrochloride]
- Selectivity towards the parasite compared to HepG2 [3]: > 500 fold
- Effect on DNA replication and nuclear division [1]: greatest inhibitory affect on DNA replication and nuclear division
- Cytotoxic response: decrease in viable cell numbers (% parasitemia) [2]: significant cytotoxic response

SMILES: Cl.Cl.S=C(NCCCNCCCCCCCNCCCNC(=S)NCCC(c1ccccc1)c1ccccc1)NCCC(c1ccccc1)c1ccccc1 [Compound 13]
- Cytotoxic response: decrease in viable cell numbers (% parasitemia) [2]: significant cytotoxic response

SMILES: Cl.Cl.O=C(NCCCNCCCCCCCNCCCNC(=O)NCC(c1ccccc1)c1ccccc1)NCC(c1ccccc1)c1ccccc1 [Compound 39, 1,15-Bis-{3-[1-(2′,2′-diphenylethyl)ureado]}-4,12-diazapentadecane Hydrochloride]
- Selectivity towards the parasite compared to HepG2 [3]: > 500 fold
- Effect on DNA replication and nuclear division [1]: greatest inhibitory affect on DNA replication and nuclear division
- Cytotoxic response: decrease in viable cell numbers (% parasitemia) [2]: significant cytotoxic response

SMILES: Cl.Cl.S=C(NCCCNCCCCNCCCNC(=S)NCc1ccccc1)NCc1ccccc1 [Compound 20]
- Effect on DNA replication and nuclear division [1]: not able to prevent DNA replication
- Cytotoxic response: decrease in viable cell numbers (% parasitemia) [2]: not able to decrease viable cell numbers

SMILES: Cl.Cl.S=C(NCCCNCCCCCCNCCCNC(=S)NC(c1ccccc1)c1ccccc1)NC(c1ccccc1)c1ccccc1 [Compound 25, 1,14-Bis-{3-[1-(1′,1′-diphenylmethyl)thioureado]}-4,11-diazatetradecane Hydrochloride]
- Cytotoxic response: decrease in viable cell numbers (% parasitemia) [2]: significant cytotoxic response

SMILES: CCN(CC)CCCC(C)Nc1ccnc2cc(Cl)ccc12 (centres unmarked) [CQ, chloroquine, reference compound]
- IC50 ([4]; Plasmodium falciparum, 3D7, 96 h, read-out: Antimalarial activity against P. falciparum IC50, 3D7): 9 ± 0.04 nM
- IC50 [5]: 70 ± 1 nM
